From PMC12124364 (Science Advances, 2025)
One block for each compound: values may come before it.

Legend:
HIV-1 WT strain (IIIB) = assay: Anti-HIV activity against HIV-1 IIIB in MT-4 cells; type: cell-based; settings: Human immunodeficiency virus 1, IIIB, MT4, read-out: EC50 IIIB strain
HIV-1 5e2res strain = assay: Anti-HIV activity against selected 5e2res strain in MT-4 cells; type: cell-based; settings: for RF (resistance fold), 5e2res strain: EC50(mutant strain)/EC50(IIIB strain); for EC50: Human immunodeficiency virus 1, MT4, read-out: EC50 5e2res strain
HIV-1 5i3res strain = assay: Anti-HIV activity against selected 5i3res strain in MT-4 cells; type: cell-based; settings: for EC50: Human immunodeficiency virus 1, MT4, read-out: EC50 5i3res strain
HIV-1 K101P mutation = settings: cited from earlier work
HIV-1 K103N mutation = settings: cited from earlier work
[1] = test system: HIV-1 GH9 (K101P/K103N/V108I); settings: cited from earlier work
[2] = test system: HIV-1 GH9 (K101P/K103N/V108I); assay: Anti-HIV-1 activity against triple-mutant strain GH9 in TZM-bl cells; type: cell-based; settings: Human immunodeficiency virus 1, TZM-bl, read-out: EC50 GH9
[3] = test system: HIV-1 p1579 (E138G/H221Y/F227L/M230L); assay: Anti-HIV-1 activity against NNRTI-resistant strain p1579 in TZM-bl cells; type: cell-based; settings: Human immunodeficiency virus 1, TZM-bl, read-out: EC50 p1579
[4] = test system: HIV-1 p5375 (A98G/K101E/E138K/Y181C); assay: Anti-HIV-1 activity against NNRTI-resistant strain p5375 in TZM-bl cells; type: cell-based; settings: Human immunodeficiency virus 1, TZM-bl, read-out: EC50 p5375
[5] = test system: HIV-1 p1833 (A98G/K101E/Y181C/G190A); assay: Anti-HIV-1 activity against NNRTI-resistant strain p1833 in TZM-bl cells; type: cell-based; settings: Human immunodeficiency virus 1, TZM-bl, read-out: EC50 p1833
[6] = test system: HIV-1 p5735 (K101E/Y181V); assay: Anti-HIV-1 activity against NNRTI-resistant strain p5735 in TZM-bl cells; type: cell-based; settings: Human immunodeficiency virus 1, TZM-bl, read-out: EC50 p5735
[7] = test system: CYP1A2, CYP2C9, CYP2C19, CYP2D6 (range over isozymes); assay: Cytochrome P450 inhibition assay, ranges over isozymes; type: in vitro ADME; settings: human, human liver microsomes
[8] = Cytotoxicity in TZM-bl cells; type: cell-based; settings: human

SMILES: Cc1cn([C@H]2C[C@H](N=[N+]=[N-])[C@@H](CO)O2)c(=O)[nH]c1=O [AZT, zidovudine]
EC50 (HIV-1 WT strain (IIIB)): 40.9 nM
RF (resistance fold), 5e2res strain (HIV-1 5e2res strain): 1.3
EC50 (HIV-1 5e2res strain): 51.9 nM
RF (resistance fold), 5i3res strain (HIV-1 5i3res strain; EC50(mutant strain)/EC50(IIIB strain)): 1.2
EC50 (HIV-1 5i3res strain): 48.9 nM

SMILES: O=C1Nc2ccc(Cl)cc2[C@@](C#CC2CC2)(C(F)(F)F)O1 [EFV, efavirenz]
reduction in efficacy by K101P mutation alone (HIV-1 K101P mutation): > 50 fold
reduction in susceptibility by K103N mutation (HIV-1 K103N mutation): about 20 fold
resistance conferred by triple-mutant strain GH9 [1]: up to 12,931 fold

SMILES: Cc1cc(C#N)cc(C)c1Oc1nc(Nc2ccc(C#N)cc2)nc(N)c1Br [ETR, etravirine]
EC50 [2]: 104 ± 38.2 nM
EC50 [3]: 74.9 ± 18.9 nM
EC50 [4]: 37.6 ± 8.06 nM
EC50 [5]: 11.1 ± 2.76 nM
EC50 [6]: 14.3 ± 5.07 nM
IC50 at 10 min [7]: 277 to 12000 nM
reduction in efficacy by K101P mutation alone (HIV-1 K101P mutation): about five-fold

SMILES: Cc1ccnc2c1NC(=O)c1cccnc1N2C1CC1 [NVP, nevirapine]
EC50 5e2res strain (HIV-1 5e2res strain; MT-4 cells): completely inactive
EC50 5i3res strain (HIV-1 5i3res strain; MT-4 cells): completely inactive
reduction in susceptibility by K103N mutation (HIV-1 K103N mutation): ~50 fold

SMILES: Cc1cc(/C=C/C#N)cc(C)c1Nc1ccnc(Nc2ccc(C#N)cc2)n1 [RPV, rilpivirine]
CC50 at 4 days [8]: > 54500 nM
EC50 [2]: 1710 ± 339 nM
EC50 [3]: 1.26 ± 0.38 nM
EC50 [4]: 1.07 ± 0.3 nM
EC50 [6]: 151 ± 32 nM
EC50 (HIV-1 5e2res strain): 16.6 nM
EC50 (HIV-1 5i3res strain): 74.6 nM
reduction in efficacy by K101P mutation alone (HIV-1 K101P mutation): up to 243 fold
resistance conferred by triple-mutant strain GH9 [1]: > 162 fold

SMILES: Nc1ccn([C@H]2CC[C@@H](CO)O2)c(=O)n1 [ddC, zalcitabine]
EC50 (HIV-1 WT strain (IIIB)): 890 nM
RF (resistance fold), 5e2res strain (HIV-1 5e2res strain): 0.8
EC50 (HIV-1 5e2res strain): 690 nM

EC50 (HIV-1 WT strain (IIIB)): 19700 nM
EC50 (HIV-1 5i3res strain): 8930 nM
SMILES: O=c1[nH]cnc2c1ncn2[C@H]1CC[C@@H](CO)O1 [ddI, didanosine]
